A short description of data set [1]: Cytotoxicity against PMA-differentiated human U937 macrophages assessed as reduction in cell viability after 24 hrs by MTT assay. Format: cell-based. The note with it: u-937, 24 h. In general terms: Formazan colour is commonly taken as a measure of viable cells.
Data set [2] can be described thus: Antiinflammatory activity in PMA-differentiated human U937 cells assessed as inhibition of LPS-stimulated IL-6 secretion at 500 uM preincubated for 2 hrs followed by LPS-stimulation measured after 24 hrs by ELISA relative to control. The note with it: U-937. Format: functional.
Data set [3] can be described thus: Antiinflammatory activity in PMA-differentiated human U937 cells assessed as inhibition of LPS-stimulated IL-6 secretion at 250 uM preincubated for 2 hrs followed by LPS-stimulation measured after 24 hrs by ELISA relative to control. The conditions noted are these: U-937. In kind it is functional.
Data set [4] can be described thus: Antiinflammatory activity in PMA-differentiated human U937 cells assessed as inhibition of LPS-stimulated IL-6 secretion at 125 uM preincubated for 2 hrs followed by LPS-stimulation measured after 24 hrs by ELISA relative to control. Format: functional. The note with it: U-937. For orientation: In an ELISA, binding on a coated surface is turned into a signal by an enzyme label.

Data set [5] can be described thus: Antiinflammatory activity in PMA-differentiated human U937 cells assessed as inhibition of LPS-stimulated IL-6 secretion at 62.5 uM preincubated for 2 hrs followed by LPS-stimulation measured after 24 hrs by ELISA relative to control. The conditions noted are these: U-937. Format: functional.
Data set [6] is described as follows: Antiinflammatory activity in PMA-differentiated human U937 cells assessed as inhibition of LPS-stimulated IL-8 secretion at 500 uM preincubated for 2 hrs followed by LPS-stimulation measured after 24 hrs by ELISA relative to control. Format: functional. The conditions noted are these: U-937.
Data set [7] in a line: Antiinflammatory activity in PMA-differentiated human U937 cells assessed as inhibition of LPS-stimulated IL-8 secretion at 250 uM preincubated for 2 hrs followed by LPS-stimulation measured after 24 hrs by ELISA relative to control. In kind it is functional. The conditions noted are these: U-937.
A short description of data set [8]: Antiinflammatory activity in PMA-differentiated human U937 cells assessed as inhibition of LPS-stimulated IL-8 secretion at 125 uM preincubated for 2 hrs followed by LPS-stimulation measured after 24 hrs by ELISA relative to control. Format: functional. The conditions noted are these: U-937.
Data set [9] in a line: Antiinflammatory activity in PMA-differentiated human U937 cells assessed as inhibition of LPS-stimulated IL-8 secretion at 62.5 uM preincubated for 2 hrs followed by LPS-stimulation measured after 24 hrs by ELISA relative to control. Format: functional. The conditions noted are these: U-937.
Data set [10] in a line: Antiinflammatory activity in PMA-differentiated human U937 cells assessed as inhibition of LPS-stimulated IL-1beta secretion at 500 uM preincubated for 2 hrs followed by LPS-stimulation measured after 24 hrs by ELISA relative to control. Format: functional. The note with it: U-937.
Data set [11] is described as follows: Antiinflammatory activity in PMA-differentiated human U937 cells assessed as inhibition of LPS-stimulated IL-1beta secretion at 250 uM preincubated for 2 hrs followed by LPS-stimulation measured after 24 hrs by ELISA relative to control. In kind it is functional. The note with it: U-937.
Data set [12] is described as follows: Antiinflammatory activity in PMA-differentiated human U937 cells assessed as inhibition of LPS-stimulated IL-1beta secretion at 125 uM preincubated for 2 hrs followed by LPS-stimulation measured after 24 hrs by ELISA relative to control. Format: functional. The note with it: U-937.
Data set [13] can be described thus: Antiinflammatory activity in PMA-differentiated human U937 cells assessed as inhibition of LPS-stimulated IL-1beta secretion at 62.5 uM preincubated for 2 hrs followed by LPS-stimulation measured after 24 hrs by ELISA relative to control. In kind it is functional. The conditions noted are these: U-937.
The nature of data set [14]: Antiinflammatory activity in PMA-differentiated human U937 cells assessed as inhibition of LPS-stimulated TNF-alpha secretion at 500 uM preincubated for 2 hrs followed by LPS-stimulation measured after 24 hrs by ELISA relative to control. Format: functional. The conditions noted are these: U-937.
Data set [15] in a line: Antiinflammatory activity in PMA-differentiated human U937 cells assessed as inhibition of LPS-stimulated TNF-alpha secretion at 250 uM preincubated for 2 hrs followed by LPS-stimulation measured after 24 hrs by ELISA relative to control. Format: functional. The conditions noted are these: U-937.
Data set [16] can be described thus: Antiinflammatory activity in PMA-differentiated human U937 cells assessed as inhibition of LPS-stimulated TNF-alpha secretion at 125 uM preincubated for 2 hrs followed by LPS-stimulation measured after 24 hrs by ELISA relative to control. Format: functional. The note with it: U-937.
Data set [17] in a line: Antiinflammatory activity in PMA-differentiated human U937 cells assessed as inhibition of LPS-stimulated TNF-alpha secretion at 62.5 uM preincubated for 2 hrs followed by LPS-stimulation measured after 24 hrs by ELISA relative to control. Format: functional. The note with it: U-937.
The nature of data set [18]: Antiinflammatory activity in human U937-3xkB-luc cells assessed as inhibition of LPS-induced NFkappaB activation at 100 uM preincubated for 30 mins followed by LPS-stimulation measured after 6 hrs by luciferase assay relative to control. In kind it is functional. The note with it: U-937.
A short description of data set [19]: Antiinflammatory activity in human U937-3xkB-luc cells assessed as inhibition of LPS-induced NFkappaB activation at 20 uM preincubated for 30 mins followed by LPS-stimulation measured after 6 hrs by luciferase assay relative to control. Format: functional. The conditions noted are these: U-937.
Data set [20] in a line: Antiinflammatory activity in human U937-3xkB-luc cells assessed as inhibition of LPS-induced NFkappaB activation at 5 uM preincubated for 30 mins followed by LPS-stimulation measured after 6 hrs by luciferase assay relative to control. Format: functional. The note with it: U-937.
Data set [21] relates to U-937. Briefly: (§1) Antiinflammatory activity in PMA-differentiated human U937 cells assessed as inhibition of LPS-stimulated IL-6 secretion preincubated for 2 hrs followed by LPS-stimulation measured after 24 hrs by ELISA relative to control. Format: functional.
The subject of data set [22] is U-937. The experiment in a line: (§2) Antiinflammatory activity in PMA-differentiated human U937 cells assessed as inhibition of LPS-stimulated TNF-alpha secretion preincubated for 2 hrs followed by LPS-stimulation measured after 24 hrs by ELISA relative to control. In kind it is functional.
A short description of data set [23]: Antiinflammatory activity in human U937-3xkB-luc cells assessed as inhibition of LPS-induced NFkappaB activation preincubated for 30 mins followed by LPS-stimulation measured after 6 hrs by luciferase assay relative to control. In kind it is functional, U-937.
Data set [24] can be described thus: Antiinflammatory activity in PMA-differentiated human U937 cells assessed as inhibition of LPS-stimulated IL-1beta secretion preincubated for 2 hrs followed by LPS-stimulation measured after 24 hrs by ELISA relative to control. Format: functional, U-937.
Data set [25] can be described thus: as §1. In kind it is functional, U-937.
Data set [26] is described as follows: Antiinflammatory activity in PMA-differentiated human U937 cells assessed as inhibition of LPS-stimulated IL-8 secretion preincubated for 2 hrs followed by LPS-stimulation measured after 24 hrs by ELISA relative to control. In kind it is functional, U-937.
A short description of data set [27]: as §2. In kind it is functional, U-937.

Molecules are shown by their SMILES.

As a reminder, the inhibition is the percentage by which the read-out fell short of the control. For the molecule `COc1cc(C(CO)C(c2ccc(O)c(OC)c2)c2ccc(O)c(OC)c2)ccc1O` (configuration not stated), in data set [1], the Activity is 500 µM. Also, the inhibition at 500 µM in data set [2] was 84.3%; in data set [6], 0.3%; in data set [10], 0.9%; in data set [14], 60%. In addition, the inhibition at 250 µM in [3] came to 62.6%; in data set [7], 0%; in data set [11] it was 9.4%; in [15], 17.5%. Also, the inhibition at 125 µM worked out at 45.5% in [4], 0.2% in [8], 25.1% in [12] and 19.8% in [16]. The inhibition at 62.5 µM in [5] was determined as 1.1%; in data set [9] it was 0%; in [13] it was 1.1%; in [17], 0%. Besides, the inhibition at 100 µM in data set [18] was 43.4%. Besides, in data set [19], the inhibition at 20 µM is 13.5%. Also, the inhibition at 5 µM in [20] is 11.2%. The inhibition entry in [21] and in data set [22] was “Dose-dependent effect” throughout.
Take `Cc1ccc(S(=O)(=O)/C=C/C#N)cc1`: the “inhibition (INH)” value is on record as 99.3% in data set [23]; 95.9% in [24]; 99.2% in data set [25]; 99.1% in data set [26]; 99.5% in [27].

The values above are taken from ChEMBL document CHEMBL3745650, “Anti-inflammatory properties of quebecol and its derivatives” (Bioorg Med Chem Lett, 2016).
